Assay results as given in paper PMC11726445 (RSC Advances, 2025).
In brackets after ≈: the same amount, converted by molar mass.

Experiments:
Type in all cases: cell-based
[1] = test system: Bacillus subtilis; assay: Biofilm inhibition, crystal violet method
[2] = test system: Staphylococcus aureus; assay: Biofilm inhibition, crystal violet method
[3] = test system: Klebsiella pneumonia; assay: Biofilm inhibition, crystal violet method
[4] = test system: Salmonella typhimurium; assay: Biofilm inhibition, crystal violet method
[5] = test system: Pseudomonas aeruginosa; assay: Biofilm inhibition, crystal violet method
[6] = test system: Bacillus subtilis; assay: Bacterial lipid peroxidation; conditions: treated at the MIC level
[7] = test system: Staphylococcus aureus; assay: Bacterial lipid peroxidation; conditions: treated at the MIC level
[8] = test system: Klebsiella pneumonia; assay: Bacterial lipid peroxidation; conditions: treated at the MIC level
[9] = test system: Salmonella typhimurium; assay: Bacterial lipid peroxidation; conditions: treated at the MIC level
[10] = test system: Pseudomonas aeruginosa; assay: Bacterial lipid peroxidation; conditions: treated at the MIC level
[11] = test system: Candida albicans; assay: MIC, broth microdilution
[12] = test system: Bacillus subtilis; assay: MIC, broth microdilution
[13] = test system: Staphylococcus aureus; assay: MIC, broth microdilution
[14] = test system: Klebsiella pneumonia; assay: MIC, broth microdilution; conditions: Klebsiella pneumoniae
[15] = test system: Pseudomonas aeruginosa; assay: MIC, broth microdilution

| Structure (SMILES) | Biofilm inhibition [1] [%] | Biofilm inhibition [2] [%] | Biofilm inhibition [3] [%] | Biofilm inhibition [4] [%] | Biofilm inhibition [5] [%] | Lipid peroxidation efficiency [6] [%] | Lipid peroxidation efficiency [7] [%] | Lipid peroxidation efficiency [8] [%] | Lipid peroxidation efficiency [9] [%] | Lipid peroxidation efficiency [10] [%] | MIC [11] [µg/mL] | MIC [12] [µg/mL] | MIC [13] [µg/mL] | MIC [14] [µg/mL] | MIC [15] [µg/mL] | Efficacy (MIC) relative to Sulfadiazine [13] [fold] |
| --- | --- | --- | --- | --- | --- | --- | --- | --- | --- | --- | --- | --- | --- | --- | --- | --- |
| O=C(O)c1cn(C2CC2)c2cc(N3CCNCC3)c(F)cc2c1=O [Ciprofloxacin, reference compound] | 49.2 ± 1.16 | 30.9 ± 4.52 | 40.8 ± 3.88 | 58.3 ± 4.02 | 45.2 ± 1.18 | 417.7 ± 2.83 | 319.8 ± 3.26 | 327.4 ± 4.42 | 294.8 ± 1.99 | 346.3 ± 2.62 |  |  |  |  |  |  |
| Nc1ccc(S(=O)(=O)Nc2ncccn2)cc1 [Sulfadiazine, reference compound] |  |  |  |  |  |  |  |  |  |  | 72 ± 3.44 (≈ 288 µM) | 46 ± 4.18 (≈ 184 µM) | 24 ± 3.92 (≈ 95.9 µM) | 47 ± 3.18 (≈ 188 µM) | 70 ± 4.99 (≈ 280 µM) |  |
| COc1ccc(C=NNC(=O)CSc2nc3c(C)cccc3c(=O)n2-c2ccccc2)cc1OS(C)(=O)=O [5g, 2-Methoxy-5-((2-(2-((8-methyl-4-oxo-3-phenyl-3,4-dihydroquinazolin-2-yl)thio)-acetyl)hydrazono)methyl)phenyl methanesulfonate] | 45.1 ± 2.72 | 34.7 ± 4.02 | 32.8 ± 1.92 | 33.9 ± 2.94 | 20.1 ± 2.32 | 219.7 ± 2.71 | 118.4 ± 2.26 | 285.2 ± 1.44 | 210.4 ± 4.66 | 175.2 ± 3.29 | 9 ± 3.17 | 48 ± 2.25 | 11.3 ± 2.38 | 99 ± 5.02 | 96 ± 4.83 | 2 |
| CCS(=O)(=O)Oc1ccc(C=NNC(=O)CSc2nc3ccc(Cl)cc3c(=O)n2-c2ccccc2)cc1 [5k, 4-((2-(2-((6-Chloro-4-oxo-3-phenyl-3,4-dihydroquinazolin-2-yl)thio)acetyl)-hydrazono)methyl)phenyl ethanesulfonate] | 63.7 ± 0.92 | 42.9 ± 2.62 | 53.1 ± 2.12 | 61.9 ± 1.72 | 38.7 ± 3.66 | 377.6 ± 3.44 | 202.2 ± 2.17 | 295.2 ± 1.89 | 278.3 ± 5.07 | 181.3 ± 6.06 | 10 ± 2.55 | 49 ± 2.77 | 52 ± 0.28 | 44 ± 1.88 | 97 ± 3.88 |  |
| CCCS(=O)(=O)Oc1ccc(C=NNC(=O)CSc2nc3c(C)cccc3c(=O)n2-c2ccccc2)cc1OC [5f, 2-Methoxy-4-((2-(2-((8-methyl-4-oxo-3-phenyl-3,4-dihydroquinazolin-2-yl)thio)-acetyl)hydrazono)methyl)phenyl propane-1-sulfonate] | 56.4 ± 3.12 | 45.1 ± 1.62 | 59.6 ± 2.22 | 37.4 ± 1.82 | 34.8 ± 4.07 | 212.5 ± 5.52 | 151.2 ± 1.92 | 230.4 ± 2.12 | 273.1 ± 4.33 | 140.4 ± 5.02 | 48 ± 4.18 (≈ 82.7 µM) | 23 ± 2.21 (≈ 39.6 µM) | 50 ± 0.88 (≈ 86.1 µM) | 22 ± 4.72 (≈ 37.9 µM) | 45 ± 6.11 (≈ 77.5 µM) |  |
